Values quoted from earlier work in patent US11066360B2, “Human plasma kallikrein inhibitors” (priority 2015, dated 2021).
Where a SMILES comes first, the peptide text is derived from it.

How the values were obtained:
[1] = tested on: LPS- or bacterial-induced sepsis in animals
[2] = tested on: patients with hereditary angioedema (HAE); conditions: human, in vivo
[3] = tested on: rat models of arthritis
[4] = tested on: mouse model of middle cerebral artery occlusion (MCAO)
[5] = tested on: sepsis patients

For `NC(N)=NCCC[C@H](NC(=O)[C@H](Cc1ccccc1)NC(=O)[C@H]1CCCN1)C(=O)CCl` [CMK, H-D-Pro-Phe-Arg-chloromethylketone] (HELM PEPTIDE1{[dP].F.R.[ClC[*:1]]}$$$$V2.0), the lesions [1] is given as “reduce” and the “vascular permeability in multiple organs” value [1] is given as “reduce”.
For `NC(N)=NCCC[C@@H](N)C(=O)N[C@@H](CCCN=C(N)N)C(=O)N1CCC[C@H]1C(=O)N1C[C@H](O)C[C@H]1C(=O)NCC(=O)N[C@@H](Cc1cccs1)C(=O)N[C@@H](CO)C(=O)N1Cc2ccccc2C[C@@H]1C(=O)N1[C@H](C(=O)N[C@@H](CCCN=C(N)N)C(=O)O)C[C@@H]2CCCC[C@@H]21` [Icatibant], the “treating HAE” value [2] is listed as “effective”.
In the case of `Cl.NCC1CCC(C(=O)N[C@@H](Cc2ccccc2)C(=O)Nc2ccc(CC(=O)O)cc2)CC1` (some centres unmarked) [PKSI-527], the joint swelling [3] is listed as “reduce”.
In the case of “C1-inhibitor: a physiological inhibitor (C1-inhibitor) [Compound C1-inhibitor]”, the lesions [1] is given as “reduce”, the “vascular permeability in multiple organs” value [1] is given as “reduce” and the infarct size [4] is given as “reduced”. The “clinical improvement in sepsis patients” value [5] was “Clinical improvement”.
